Data as given in PubChem BioAssay (NCI).
Where “and” joins values, the source holds several entries; their conditions need not be identical. Equal values may be shown once.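 A five-concentration, 48-hour dose response in 96-well plates underlies each endpoint, interpolated linearly between surrounding concentrations. Here, GI50 denotes the concentration required for 50% inhibition of growth. TGI marks complete inhibition of growth.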 Where a SMILES comes first, the peptide text is derived from it. [ ]: non-standard residue; d: D form. The star is where a group is joined. ξ: configuration not given here. NMeN = CN[C@@H](CC(N)=O)C(=O)O; NMeV = CN[C@H](C(=O)O)C(C)C; ξNMeV = CNC(C(=O)O)C(C)C; Boc = CC(C)(C)OC(=O)*; ξNMeA = CNC(C)C(=O)O

Tests used:
Assay in all cases: NCI tumour cell line growth inhibition, 48 h
ACHN renal = tested on: ACHN renal
DU-145 prostate = tested on: DU-145 prostate
HOP-62 NSCLC = tested on: HOP-62 NSCLC
HT29 colon = tested on: HT29 colon
IGROV1 ovarian = tested on: IGROV1 ovarian
M14 melanoma = tested on: M14 melanoma
MALME-3M melanoma = tested on: MALME-3M melanoma
MOLT-4 leukemia = tested on: MOLT-4 leukemia
OVCAR-8 ovarian = tested on: OVCAR-8 ovarian
SK-MEL-28 melanoma = tested on: SK-MEL-28 melanoma

Row | Structure (SMILES) | TGI (ACHN renal) | TGI (DU-145 prostate) | TGI (HOP-62 NSCLC) | TGI (HT29 colon) | TGI (IGROV1 ovarian) | TGI (M14 melanoma) | TGI (MALME-3M melanoma) | TGI (MOLT-4 leukemia) | TGI (OVCAR-8 ovarian) | TGI (SK-MEL-28 melanoma) | GI50 (ACHN renal) | GI50 (HOP-62 NSCLC) | GI50 (HT29 colon) | GI50 (IGROV1 ovarian) | GI50 (M14 melanoma) | GI50 (MOLT-4 leukemia) | GI50 (SK-MEL-28 melanoma) | GI50 (DU-145 prostate) | GI50 (MALME-3M melanoma) | GI50 (OVCAR-8 ovarian)
1 | c1ccc2c(c1)-c1ccccc1C2N1CC2CCC(CC2)C1 | 53.4 µM | 92 µM | 62 µM | 37.6 µM | 69.8 µM | 75.4 µM | 27.6 µM | 28.2 µM | > 100 µM | 96.1 µM | – | – | – | – | – | – | – | – | – | –
2 | COC(=O)C(C)N(C)C(=O)[C@H](CC(N)=O)N(C)C(=O)[C@@H]1CCCN1C(=O)[C@H](C(C)C)N(C)C(=O)C(C(C)C)N(C)C(=O)[C@@H](NC(=O)OC(C)(C)C)C(C)C (stereo not given in full) (Boc-V[ξNMeV][NMeV]P[NMeN][ξNMeA]-OMe) | > 100 µM | > 50 µM | > 100 µM | > 100 µM | > 100 µM | > 100 µM | > 100 µM | 38.9 µM and > 100 µM | > 100 µM | > 100 µM | > 100 µM | > 100 µM | > 100 µM | > 100 µM | > 100 µM | > 100 µM | > 100 µM | – | – | –
3 | COc1cccc(-c2nc3sccn3c2-c2ccnc(NCCNS(=O)(=O)c3ccccc3)c2)c1 | > 100 µM | > 100 µM | 67.1 µM | 34.3 µM | > 100 µM | > 100 µM | > 100 µM | > 100 µM | > 100 µM | > 100 µM | 2.22 µM | 4.24 µM | 2.37 µM | 2.2 µM | 2.84 µM | 2.03 µM | 5.13 µM | 2.98 µM | 2.79 µM | 2.13 µM
4 | CCOc1ccc(Nc2nc(-c3ccc4c(c3)NC(=O)CO4)cs2)cc1 | > 100 µM | > 100 µM | > 100 µM | > 100 µM | > 100 µM | 17.4 µM | 20.4 µM | 5.28 µM | > 100 µM | 19.6 µM | 6.96 µM | 15.4 µM | 5.74 µM | 15.5 µM | 4.33 µM | 2.01 µM | 4.29 µM | 30.8 µM | 4.71 µM | 4 µM
5 | Cc1occc1C(=S)Nc1ccc(Cl)c(/C=N/OC(C)C)c1 | 51 µM | > 54.2 µM | > 60.9 µM | 45 µM | > 57.2 µM | 57.9 µM | > 57.4 µM | > 57.6 µM | > 55.4 µM | > 56.4 µM | – | – | – | – | – | – | – | – | – | –
6 | CN1CCCCCC(=N\O)/C(=N/O)CCCCC1 | > 100 µM | > 100 µM | > 100 µM | > 100 µM | > 100 µM | > 100 µM | > 100 µM | > 100 µM | > 100 µM | > 100 µM | – | – | – | – | – | – | – | – | – | –
7 | NC(=N\N=C/c1cccc([N+](=O)[O-])c1)/C(N)=N\N=C/c1cccc([N+](=O)[O-])c1 | > 100 µM | > 100 µM | > 100 µM | > 100 µM | > 100 µM | > 100 µM | > 100 µM | > 100 µM | > 100 µM | > 100 µM | > 100 µM | > 100 µM | > 100 µM | > 100 µM | > 100 µM | > 100 µM | > 100 µM | > 100 µM | > 100 µM | > 100 µM
8 | Cn1nc(-c2ccccc2)nc1[N+](=O)[O-] | > 10 µM | > 10 µM | > 10 µM | > 10 µM | > 10 µM | > 10 µM | > 10 µM | > 10 µM | > 10 µM | > 10 µM | – | – | – | – | – | – | – | – | – | –
9 | O=C(Nc1cc[c]([Sb](=[O])([OH])[OH])cc1)c1ccccc1 | > 100 µM | > 100 µM | > 100 µM | > 100 µM | > 100 µM | > 100 µM | > 100 µM | > 100 µM | > 100 µM | > 100 µM | > 100 µM | > 100 µM | > 100 µM | > 100 µM | > 100 µM | > 100 µM | > 100 µM | > 100 µM | > 100 µM | > 100 µM
10 | COc1ccc(C2=C(c3ccc(OC)c(OC)c3)C(=O)OC2)cc1 | > 100 µM | > 100 µM | – | > 100 µM | > 62.8 µM | > 36.4 µM | > 81 µM | – | > 100 µM | > 100 µM | < 0.0135 µM | < 0.01 µM | < 0.01 µM | 0.0768 µM | < 0.01 µM | < 0.0208 µM | – | 0.185 µM | – | 0.0451 µM
11 | Cc1cccc(Cl)c1NC(=O)/C=C/c1ccccc1 | > 100 µM | > 100 µM | > 100 µM | > 100 µM | > 100 µM | > 100 µM | > 100 µM | > 100 µM | > 100 µM | > 100 µM | – | – | – | – | – | – | – | – | – | –
12 | COc1ccc2c(CN3CCC[C@H]3C(=O)O)cc3cc4c(cc3c2c1)OCO4 | > 100 µM | > 100 µM | 86.1 µM | 62 µM | > 100 µM | 27.3 µM | 17.7 µM | > 100 µM | 82.3 µM | 36.8 µM | 5.97 µM | 19.4 µM | 8.46 µM | 25.4 µM | 13.3 µM | 5.33 µM | 15.5 µM | 19.7 µM | 2.59 µM | 5.65 µM
13 | NC(=O)c1ccc2c(-c3ccnc(NCCCO)n3)c(-c3ccc(F)cc3)nn2c1 | > 25 µM | > 25 µM | > 25 µM | > 25 µM | > 25 µM | > 25 µM | > 25 µM | > 25 µM | > 25 µM | > 25 µM | > 17.1 µM | > 25 µM | > 21.2 µM | 12.9 µM | > 25 µM | > 25 µM | > 25 µM | > 22.8 µM | > 25 µM | > 25 µM
14 | O=C(CC12CC3CC(CC(C3)C1)C2)NCCOCCOCCOCCNC(=O)c1cc2c(o1)C(=O)c1ccccc1C2=O | 3.12 µM | 1.28 µM | 3.33 µM | 6.36 µM | 4.6 µM | 0.491 µM | 0.328 µM | 6.22 µM | 10.6 µM | 3.27 µM | 1.51 µM | 1.89 µM | 2.46 µM | 1.66 µM | 0.222 µM | 2.02 µM | 1.7 µM | 0.407 µM | 0.157 µM | 1.15 µM
15 | O=C(N/N=C/c1ccccc1Cl)c1ccccc1Nc1ccnc(C(F)(F)F)c1 | 4.72 µM | > 26.5 µM | 8.18 µM | > 100 µM | 10.3 µM | 7.19 µM | 4.94 µM | – | 8.08 µM | 27.6 µM | 1.16 µM | 1.31 µM | 3.56 µM | 1.87 µM | 1.63 µM | – | 2.39 µM | 2.5 µM | 1.55 µM | 2.29 µM
16 | O=c1[nH]ccc2nc(N3CCC(O)CC3)nc(Nc3cccc(C(F)(F)F)c3)c12 | 84.7 µM | 19.3 µM | 18.8 µM | 96.3 µM | – | 8.23 µM | 7.87 µM | 7.75 µM | 40.6 µM | 17.4 µM | 0.702 µM | 4.4 µM | 3.88 µM | – | 1.55 µM | 2.24 µM | 4.63 µM | 1.56 µM | 2.61 µM | 3.29 µM
17 | C=CCN(CC=C)C(=O)c1cc(C)nc2c1c(=O)n(-c1ccccc1)c(=O)n2CC(O)CN1CCN(c2ncccn2)CC1 (stereo not given) | > 100 µM | > 100 µM | > 100 µM | > 100 µM | > 100 µM | > 100 µM | > 100 µM | > 100 µM | – | > 100 µM | > 100 µM | 21.1 µM | > 100 µM | > 100 µM | > 100 µM | > 100 µM | 60.9 µM | > 100 µM | > 100 µM | –
18 | CC(C)CNc1nc(-c2ccccc2)nc2ccccc12 | 29.5 µM | 28.2 µM | 31.5 µM | – | > 100 µM | 26.4 µM | 26.4 µM | 38.1 µM | 31.8 µM | 32.7 µM | 16 µM | 17.7 µM | – | 27.4 µM | 13.5 µM | 13.7 µM | 17.3 µM | 14.8 µM | 13.4 µM | 15 µM
19 | COc1cc2cc(C(=O)Nc3cc(N)c4ccccc4c3CCCl)[nH]c2c(OC)c1OC | 0.13 µM | 0.339 µM | 0.165 µM | 12.7 µM | 3.51 µM | – | 0.274 µM | – | 0.841 µM | – | 0.0184 µM | 0.0244 µM | 0.0438 µM | 0.0146 µM | – | 0.0132 µM | 0.0923 µM | 0.00895 µM | 0.119 µM | 0.0191 µM
20 | Cc1cc(N2CCN(c3ccnc4cc(Cl)ccc34)CC2)nc(NC2CCCCC2)n1 | – | 11.2 µM | 4.61 µM | 3.9 µM | 5.35 µM | 3.36 µM | 3.83 µM | 5.62 µM | 6.35 µM | – | – | 2.02 µM | 1.79 µM | 2.35 µM | 1.7 µM | 2.38 µM | – | 3.51 µM | 1.89 µM | 2.39 µM
21 | c1cc(OCCN2CCCCC2)ccc1CNc1ccc2nc(CCC3CCCCC3)[nH]c2c1 | 5.4 µM | 11.5 µM | 3.4 µM | 3.7 µM | 6.59 µM | 3.38 µM | 3.14 µM | 6.2 µM | 6.82 µM | – | 2.2 µM | 1.79 µM | 0.907 µM | 2.32 µM | 1.72 µM | 2.01 µM | – | 3.33 µM | 1.62 µM | 2.42 µM
